Measurements taken from patent US20250381165A1, “Method of Use for Benzofuran Compounds” (Tampa Bay Research Institute, Inc., priority 2024, published 2025).

Tests used:
[1] = tested on: MHC class I H-2Kb on DC2.4; assay: Surface MHC class I H-2Kb on DC2.4 (AF6-88.5.5.3 flow cytometry); format: cell-based, murine; conditions: DC2.4, 25 μg/mL
Protocol: By using an MHC class I H-2K^b specific antibody, a relative comparison of the surface MHC class I was measured before and after BzFβ treatment of DC2.4 and IMG cells. […] Cells were centrifuged and washed using cold FACS buffer (DPBS with 5% FBS, 2 mM EDTA, 0.1% sodium azide). Cells were blocked with Fc block (bioLegend™; cat. no. 101320) for 10 min to 15 min to inhibit non-specific binding, followed by staining with fluorophore-conjugated antibodies; one set of cells was stained with the PE-labeled MHC/SIINFEKL specific antibody (clone 25-D1.16, Invitrogen™, Thermo Fisher Scientific Inc., Waltham, MA; cat. no. 12-5743-82), and the other set was stained with the PE-labeled MHC class I H-2Kb specific antibody (AF6-88.5.5.3,Invitrogen™, Thermo Fisher Scientific Inc., Waltham, MA; cat. no. 12-5958-82) PE-labeled MHC class I H-2kb specific (clone AF6-88.5.5.3; Invitrogen™, Thermo Fisher Scientific Inc., Waltham, MA; cat. no. 12-5958-82), for 30 min at 4° C. After washing, the cells were subjected to flow cytometric analysis with the Attune NxT Flow Cytometer (Invitrogen). Cells were gated based on live single-cell populations and positives were assessed using isotype controls and fluor-minus-one analysis when needed. Data were analyzed using the Attune NxT software or FlowJo versions 10.7 and 10.8.

[2] = Detection of BzFβ in serum by HPLC; format: in vivo, C57BL/6NCrl mice
Protocol: Six- to ten-week-old male and female C57BL/6NCrl mice (Charles River Laboratories, Wilmington MA; cat. no. 027) were used for all animal studies. The mice were maintained in accord with the NIH Guide for the Care and Use of Laboratory Animals. Experimental procedures were performed in accord with research protocols approved by the Tampa Bay Research Institute's Institutional Animal Care and Use Committee. Mice were maintained in an INOVIVE individually ventilated cage system with 3 mice per cage containing 100% virgin wood pulp bedding (Harlan Teklad™, Harlan Sprague Dawley Inc., Indianapolis, IA; cat. no. 7099). Water and food (Harlan Teklad™, cat. no. 8640) were available ad libitum. The mice were maintained on a cycle of 12 h of light and 12 h of dark in an environment with a temperature of 74-76° […]. and 40-60% humidity. All cages underwent 40 air changes hourly in the negative pressure mode, in accordance with manufacturer's recommendations. Both the intake and exhaust air from the system were filtered through HEPA filters to maintain a clean environment. Stock solutions of BzFβ were solubilized in alkaline water (pH 10) and then sterile filtered through 0.22 µm syringe filters. BzFβ used for iv or im injections was diluted in 0.9% saline (normal saline). The stock solutions of the SIINFEKL peptide were prepared in 1× calcium/magnesium free Dulbecco's phosphate-buffered saline (DPBS; ThermoFisher Scientific, cat. no. 14190144).
After overnight fasting, six-to ten-week-old mice were gavaged with 1-2 mg of BzFβ solubilized in 200 μL alkaline water or were injected intramuscular (IM) or intravenous with 100 μg diluted in normal saline. After various times mice were anesthetized using 2.0% isoflurane with O2 at 1 L/min, and 200-500 μL of blood was collected in a microfuge tube containing 700 μL of 50 mM EDTA in DPBS as an anticoagulant. The blood samples were centrifuged at 4500×g for 20 min to separate the plasma from the cells. The resulting plasma (200 μL) was removed and extracted with 4 mL methanol. This mixture was vortexed for 30 s and centrifuged at 4000×g for 10 min at 4° C. The supernatant was collected and dried using a SpeedVac (SC210 Å) under a vacuum of 0.4 torr at 65° C. When dry, the sample was removed and resuspended in 100 μL methanol and then re-centrifuged to remove any precipitates. A 20 μL sample of this mixture was analyzed by HPLC.
BzFβ was detected in the serum using a Shimadzu high performance liquid chromatography (HPLC) system. The Shimadzu system consisted of two LC-20AR pumps, a SPD-M20A diode array UV-Vis detector, and a 20 μL injection loop onto a Phenomenex Luna […] Analytical PFP column 100 A (cat. no. OOF-4448-E0). Analysis and data collection were conducted using Shimadzu LabSolutions software. Samples ([…]) were injected onto the column and separated using a gradient of acetonitrile (ACN) and water as the mobile phase. The gradient started with 10% ACN and increased stepwise to 80% ACN for peak clarity. Buffer B was water adjusted to pH 2.5 using phosphoric acid. The column was kept at a constant temperature of 30° C. (Chai, et al., Comprehensive study of the intestinal absorption of four phenolic compounds after oral administration of Ananas comosus leaf extract in vivo and in vitro. Afr J Pharm Pharmacol. 2013 Jul. 15; 7(26):1781-92).
Following up on the prediction that BzFβ should be able to be absorbed through the GI tract and gain access to the systemic circulation, C57Bl/6crl mice were gavaged (po) with either 200 μL of alkaline water (negative control) or with 2 mg of BzFβ solubilized in 200 μL alkaline water. Fifteen minutes later, peripheral blood was obtained. The serum was extracted with methanol, lyophilized, and then examined by HPLC for the presence of BzFβ. […] BzFβ was then administered to another group of mice iv (100 μg), im ([…]), and po (1 mg). After 15 min, the serum was collected, extracted with methanol, and then analyzed by HPLC. […]

O=C(O)/C=C/c1ccc2occc2c1 [BzFβ, (2E)-3-(1-benzofuran-5-yl)prop-2-enoic acid]
overall surface expression (MFI) of MHC class I ([1]; 1-4 h): no significant effect
overall surface expression (MFI) of MHC class I ([1]; 24 h): significant increase
persistence in serum ([2]; 1, 2 and 3 h post im injection of 1 mg): still detectable
stability in vivo compared with dipeptides ([2]; GI tract and bloodstream): much more stable in the GI tract and bloodstream
presence in serum by HPLC ([2]; iv (100 μg), im (100 g), po (1 mg), 15 min): presence of the appropriate peak
earliest detection in blood plasma ([2]; oral administration): 30 min
latest detection in blood plasma ([2]; oral administration): 3 h
presence in serum by HPLC ([2]; po 2 mg, fifteen minutes): revealed the presence of BzFβ
